The test system of the assay is Rat Cerebral Cortex Neuronal Culture. The assay can be described thus: Apoptosis induction by Amyloid β peptide (Aβ 25-35) in PGT 40/PGT 70-transfected neurons and inhibiting action of PGE 1. To be noted: Aβ 25-35 exposure 24 hours. Format: cell-based. The source says: PGT 40 or PGT 70 cDNA was inserted into pTracer-SV 40 vector (Invitrogen) to construct an expression vector. PGT 40 means the brain-type PGT of the present invention. PGT 70 means the lung-type PGT which was disclosed in the prior art literature.
Fetus of 17 days age (viviparous) was ejected from pregnant rat of SD strain and, in an ice-cold L-15 medium (Invitrogen), cerebral cortex was collected from brain of the fetus. After it was finely cut by scissors, cells were dispersed using a kit for dispersing the neurons (Sumilon), sowed on a polyethyleneimine-coated cover glass (diameter: 12 mm; manufactured by Asahi Technoglass) in a living cell density of 1.6×10^5 cells/cm^2 and cultured (at 37° C. with 5% of CO2). […]
After the cells were fixed (at room temperature for 5 minutes) with a 10% neutral buffered formalin solution, they were stained with 0.01 mg/mL Hoechst 33342 (being dissolved in PBS(−); Molecular Probe) and, under a fluorescent microscope, […] total cell numbers and apoptosis cells (the cells which were aggregated and fragmented by chromatin) were counted in random 20 fields for one example whereupon the apoptosis-positive cell percentage (%) was calculated. […]

On to `CCCCC[C@H](O)/C=C/[C@H]1[C@H](O)CC(=O)[C@@H]1CCCCCCC(=O)O` [PGE1], for which, for the setting “PGE 1 0.01, 0.1, 1 and 10 μM added together with Aβ”, the “action of PGE1 on Aβ-induced apoptosis” value is “anti-apotosis action”.
Take “PGT40: the brain-type PGT (prostaglandin transporter) of the present invention, SEQ ID NO: 3, expressed from pTracer-SV 40 vector”: the “effect of PGT expression on anti-apoptosis action of PGE1 (apoptosis-positive cell percentage / apoptosis inhibiting rate)” value (neurons transfected with PGT expression vector, PGE 1 0.01, 0.1, 1 and 10 μM, Hoechst 33342 staining) is “accelerate anti-apotosis action of PGE1”.

For the origin of these results see patent publication US20030032793A1, “Gene of PGT of human brain type” (priority 1999, published 2003).
